Laboratory results: paper PMC12651750 (Cells, 2025)

Columns and labels:
[1] = system: Jurkat cells; test: Western blot of protein levels; type: cell-based, human; conditions: 0.2, 1, 5 µM, 48 h
Procedure: Jurkat cells were stimulated with NBU-2 (0.2 µM, 1 µM, 5 µM) and DMSO, respectively, for 48 h. Cells were lysed by the addition of appropriate RIPA Lysis Buffer (containing protease inhibitors and phosphatase inhibitors), and protein concentrations were determined using the BCA assay. Centrifuge the above cell lysates at 12,000× g for 10 min at 4 °C and retain the supernatant. After diluting the samples to the same concentration with lysate, add the corresponding volume of SDS-PAGE protein uploading buffer (5×), and the proteins were denatured by boiling at 100 °C for 10 min. According to the molecular weight of the target protein, we selected the corresponding concentration of the gel for electrophoresis. After electrophoresis, the proteins on the gel were transferred to the PVDF membrane. The transfer time could be adjusted appropriately according to the molecular weight of the proteins. Subsequently, the corresponding protein primary antibody was taken, and the corresponding antibody was diluted according to the instructions and incubated overnight at 4 °C on a shaker. The following day, it was conjugated to the secondary antibody. The protein bands were then visualized under the ChemiDoc system using the chemiluminescent developer. Antibodies HDAC1 (Cat#10197-1-AP), HDAC6 (Cat#12834-1-AP), Bax (Cat#60267-1-1), BAD (Cat#10435-1-AP), Bcl-2 (Cat#12789-1-AP), Bcl-xl (Cat#10783-1-AP), Caspase3/P17/P19 (Cat#19677-1-AP), Caspase8/P43/P18 (Cat#13423-1-AP), and P21 (Cat#10355-1-AP) were purchased from Wuhan, China. Antibody actin (Cat#21338-1) was purchased from SAB, China. Acetyl-Histone H3 (Cat#AF1684), Acetyl-Histone H4 (Cat#AJ4218), Phos-AKT1 (Cat#AF1546), CDK4 (Cat#AF2515), Cyclin D1 (Cat#AF0126), and Phos-RB1 (Cat#AF1135) were purchased from Beyotime International, Nantong, China. H3 (Cat#A2348) and Caspase3 (A19653) were purchased from ABclonal, Wuhan, China. Cleaved-Caspase9 (Cat#52873T) was purchased from Cell Signal Technology, Danvers, MA, USA.

[2] = molecular target: HDAC1 (Homo sapiens, UniProt Q13547); test: In vitro HDAC enzymatic inhibition assay (HDAC kit, fluorescence)
Chain of HDAC1 (Q13547 whole entry): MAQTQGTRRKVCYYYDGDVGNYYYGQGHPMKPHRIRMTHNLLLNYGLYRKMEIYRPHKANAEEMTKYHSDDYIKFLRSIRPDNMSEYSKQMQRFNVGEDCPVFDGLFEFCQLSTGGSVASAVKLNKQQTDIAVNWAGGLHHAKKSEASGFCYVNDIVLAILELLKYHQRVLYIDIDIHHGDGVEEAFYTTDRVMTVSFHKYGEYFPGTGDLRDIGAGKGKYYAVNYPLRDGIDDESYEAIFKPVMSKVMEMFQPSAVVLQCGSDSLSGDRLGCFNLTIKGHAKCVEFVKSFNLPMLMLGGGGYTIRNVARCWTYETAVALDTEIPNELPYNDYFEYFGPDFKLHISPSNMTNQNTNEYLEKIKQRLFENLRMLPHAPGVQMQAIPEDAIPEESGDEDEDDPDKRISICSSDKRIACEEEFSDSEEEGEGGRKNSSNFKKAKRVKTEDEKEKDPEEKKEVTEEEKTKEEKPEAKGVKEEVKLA
Procedure: (§1) Enzymatic assays were performed by Shanghai ChemPartner according to the HDAC kit protocol. […] Fluorescence was recorded at 355 nm excitation and 460 nm emission on a Synergy MX reader (PerkinElmer Life Sciences, Boston, MA, USA). IC50 values were derived from dose–response curves.

[3] = molecular target: T1, HDAC6 (Homo sapiens, UniProt Q9UBN7); test: as above
T1 sequence (Q9UBN7 1-1215): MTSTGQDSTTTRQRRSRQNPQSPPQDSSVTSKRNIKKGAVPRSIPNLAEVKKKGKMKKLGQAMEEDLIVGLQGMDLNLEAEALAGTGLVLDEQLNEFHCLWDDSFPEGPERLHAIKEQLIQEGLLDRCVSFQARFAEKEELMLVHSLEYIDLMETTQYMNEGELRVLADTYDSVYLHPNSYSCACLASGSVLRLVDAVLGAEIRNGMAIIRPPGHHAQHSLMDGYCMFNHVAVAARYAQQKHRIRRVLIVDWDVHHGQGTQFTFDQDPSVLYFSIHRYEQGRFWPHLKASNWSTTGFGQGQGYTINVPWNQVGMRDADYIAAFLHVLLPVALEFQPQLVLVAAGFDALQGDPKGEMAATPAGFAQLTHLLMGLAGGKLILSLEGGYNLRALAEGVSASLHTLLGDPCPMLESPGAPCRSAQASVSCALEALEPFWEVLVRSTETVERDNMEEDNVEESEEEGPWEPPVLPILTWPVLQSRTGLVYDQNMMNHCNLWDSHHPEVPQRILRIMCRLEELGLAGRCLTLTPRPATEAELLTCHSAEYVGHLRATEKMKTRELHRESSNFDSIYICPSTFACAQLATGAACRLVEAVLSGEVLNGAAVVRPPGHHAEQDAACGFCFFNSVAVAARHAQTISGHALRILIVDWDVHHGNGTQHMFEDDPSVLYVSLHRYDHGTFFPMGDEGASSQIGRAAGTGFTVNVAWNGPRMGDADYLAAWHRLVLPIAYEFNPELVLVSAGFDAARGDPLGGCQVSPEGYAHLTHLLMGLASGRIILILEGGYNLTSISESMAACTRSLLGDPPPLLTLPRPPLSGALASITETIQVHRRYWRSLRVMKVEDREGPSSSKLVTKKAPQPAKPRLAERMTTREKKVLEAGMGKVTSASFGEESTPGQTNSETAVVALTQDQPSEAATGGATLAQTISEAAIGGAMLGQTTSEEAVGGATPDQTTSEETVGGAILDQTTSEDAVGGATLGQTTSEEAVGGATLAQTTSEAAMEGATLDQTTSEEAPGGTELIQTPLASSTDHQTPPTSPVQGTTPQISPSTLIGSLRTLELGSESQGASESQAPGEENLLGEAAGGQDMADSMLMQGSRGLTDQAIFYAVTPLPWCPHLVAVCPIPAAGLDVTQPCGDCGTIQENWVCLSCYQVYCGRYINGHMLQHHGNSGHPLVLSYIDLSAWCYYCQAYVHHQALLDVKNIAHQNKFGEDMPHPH
Procedure: as §1

[4] = system: Jurkat cells; test: Reactive oxygen species assay (DCFH-DA probe); type: cell-based, human; conditions: 0.2, 1, 5 µM, 48 h; concentration-dependent
Procedure: Cells were treated with 0.2 µM, 1 µM, 5 µM, and DMSO for 48 h. Then the probes were loaded using serum-free medium and incubated for 20 min at 37 °C in a cell incubator. Next, the cells were collected.

## Cc1cccc2c(=O)c3c(NCCCCCC(=O)NO)ccc([N+](=O)[O-])c3[nH]c12 [NBU-2, N-hydroxy-6-((5-methyl-4-nitro-9-oxo-9,10-dihydroacridin-1-yl)amino)hexanamide]
[1]
  Ac-H4 level: no significant change
  BAD expression: unaffected
  Bcl-2 expression: reduced
  Bcl-XL expression: reduced
  Caspase-3 (prototype) expression: did not affect
  Caspase-8 (prototype) expression: did not affect
  Caspase-9 (prototype) expression: did not affect
  HDAC1 protein expression level: not affected
  HDAC6 protein expression level: not affected
  Protein level of p-Akt (Ser473): significantly reduced
  Total histone H3: not affected
[1]; concentration-dependent
  CDK4 expression: inhibited
  Cyclin D1 expression: inhibited
  Intracellular Ac-H3 protein level: significantly increased
  p21 expression: increased
[1]; with concentration
  BAX expression: increased
[1]; with increasing concentration
  Cleaved-Caspase-3 expression: increased
  Cleaved-Caspase-9 expression: increased
  p-Rb expression: decreased
[2]
  IC50: 7.75 ± 0.57 nM
[3]
  IC50: 7.34 ± 0.6 nM
[4]
  Levels of reactive oxygen species relative to DMSO: significantly increased
